% of inhibition, % of control and % binding data for six compounds are collected here from ChEMBL document CHEMBL5465560, “Selectivity Literature for EUbOPEN Chemogenomic Library” (2024).

Experiment [1] concerns the target T1, Serine/threonine-protein kinase NLK (Homo sapiens) (UniProt Q9UBE8).
T1 sequence (whole entry): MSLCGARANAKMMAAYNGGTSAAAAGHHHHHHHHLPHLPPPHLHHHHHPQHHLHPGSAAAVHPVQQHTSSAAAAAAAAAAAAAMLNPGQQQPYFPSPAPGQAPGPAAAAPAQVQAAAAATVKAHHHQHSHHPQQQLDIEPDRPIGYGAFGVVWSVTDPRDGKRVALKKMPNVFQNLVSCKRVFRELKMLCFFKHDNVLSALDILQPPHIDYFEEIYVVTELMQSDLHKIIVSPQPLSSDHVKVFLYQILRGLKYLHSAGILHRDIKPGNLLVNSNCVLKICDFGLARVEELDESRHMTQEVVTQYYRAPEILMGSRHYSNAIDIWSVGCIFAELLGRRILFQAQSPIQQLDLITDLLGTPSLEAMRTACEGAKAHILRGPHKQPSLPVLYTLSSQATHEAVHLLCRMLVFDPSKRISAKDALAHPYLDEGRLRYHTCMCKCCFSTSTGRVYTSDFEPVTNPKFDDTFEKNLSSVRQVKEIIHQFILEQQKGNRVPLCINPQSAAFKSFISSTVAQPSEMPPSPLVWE
The experiment in a line: Selectivity interaction (LanthaScreen Eu Kinase Binding Assay) EUB0001632a NLK. The conditions noted are these: at 10 µM. For orientation: In TR-FRET formats the signal depends on donor and acceptor labels being close together.

The target in experiment [2] is Dual specificity protein kinase CLK3 (Homo sapiens, UniProt P49761). The experiment in a line: Selectivity interaction (SelectScreen profiling (Invitrogen)) EUB0000607a CLK3. The note with it: at 2 µM.
Dual specificity protein kinase CLK3, sequence (P49761 whole entry, looked up): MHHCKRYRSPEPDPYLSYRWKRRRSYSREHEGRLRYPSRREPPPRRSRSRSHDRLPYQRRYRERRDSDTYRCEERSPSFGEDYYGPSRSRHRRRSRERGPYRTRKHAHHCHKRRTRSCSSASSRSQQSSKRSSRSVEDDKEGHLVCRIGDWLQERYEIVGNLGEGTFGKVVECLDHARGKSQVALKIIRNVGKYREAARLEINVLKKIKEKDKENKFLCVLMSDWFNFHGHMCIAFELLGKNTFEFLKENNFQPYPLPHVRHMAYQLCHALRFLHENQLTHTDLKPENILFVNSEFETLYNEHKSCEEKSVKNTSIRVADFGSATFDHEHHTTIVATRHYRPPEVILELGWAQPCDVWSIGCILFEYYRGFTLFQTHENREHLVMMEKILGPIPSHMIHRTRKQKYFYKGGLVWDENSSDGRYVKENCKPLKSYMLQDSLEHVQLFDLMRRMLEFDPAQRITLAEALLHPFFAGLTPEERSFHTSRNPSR
The test system of experiment [3] is Hepatocyte growth factor receptor (Homo sapiens), P08581 [M1250T]. The experiment in a line: (§1) Selectivity interaction (KinomeScan (DiscoverX)) EUB0000607a MET. The note with it: at 10 µM.
Experiment [4] relates to Hepatocyte growth factor receptor (Homo sapiens), P08581 [Y1235D]. The description is as §1. The conditions noted are these: at 10 µM.
Hepatocyte growth factor receptor (Homo sapiens), P08581 [Y1235D], sequence (P08581 whole entry Y1235D): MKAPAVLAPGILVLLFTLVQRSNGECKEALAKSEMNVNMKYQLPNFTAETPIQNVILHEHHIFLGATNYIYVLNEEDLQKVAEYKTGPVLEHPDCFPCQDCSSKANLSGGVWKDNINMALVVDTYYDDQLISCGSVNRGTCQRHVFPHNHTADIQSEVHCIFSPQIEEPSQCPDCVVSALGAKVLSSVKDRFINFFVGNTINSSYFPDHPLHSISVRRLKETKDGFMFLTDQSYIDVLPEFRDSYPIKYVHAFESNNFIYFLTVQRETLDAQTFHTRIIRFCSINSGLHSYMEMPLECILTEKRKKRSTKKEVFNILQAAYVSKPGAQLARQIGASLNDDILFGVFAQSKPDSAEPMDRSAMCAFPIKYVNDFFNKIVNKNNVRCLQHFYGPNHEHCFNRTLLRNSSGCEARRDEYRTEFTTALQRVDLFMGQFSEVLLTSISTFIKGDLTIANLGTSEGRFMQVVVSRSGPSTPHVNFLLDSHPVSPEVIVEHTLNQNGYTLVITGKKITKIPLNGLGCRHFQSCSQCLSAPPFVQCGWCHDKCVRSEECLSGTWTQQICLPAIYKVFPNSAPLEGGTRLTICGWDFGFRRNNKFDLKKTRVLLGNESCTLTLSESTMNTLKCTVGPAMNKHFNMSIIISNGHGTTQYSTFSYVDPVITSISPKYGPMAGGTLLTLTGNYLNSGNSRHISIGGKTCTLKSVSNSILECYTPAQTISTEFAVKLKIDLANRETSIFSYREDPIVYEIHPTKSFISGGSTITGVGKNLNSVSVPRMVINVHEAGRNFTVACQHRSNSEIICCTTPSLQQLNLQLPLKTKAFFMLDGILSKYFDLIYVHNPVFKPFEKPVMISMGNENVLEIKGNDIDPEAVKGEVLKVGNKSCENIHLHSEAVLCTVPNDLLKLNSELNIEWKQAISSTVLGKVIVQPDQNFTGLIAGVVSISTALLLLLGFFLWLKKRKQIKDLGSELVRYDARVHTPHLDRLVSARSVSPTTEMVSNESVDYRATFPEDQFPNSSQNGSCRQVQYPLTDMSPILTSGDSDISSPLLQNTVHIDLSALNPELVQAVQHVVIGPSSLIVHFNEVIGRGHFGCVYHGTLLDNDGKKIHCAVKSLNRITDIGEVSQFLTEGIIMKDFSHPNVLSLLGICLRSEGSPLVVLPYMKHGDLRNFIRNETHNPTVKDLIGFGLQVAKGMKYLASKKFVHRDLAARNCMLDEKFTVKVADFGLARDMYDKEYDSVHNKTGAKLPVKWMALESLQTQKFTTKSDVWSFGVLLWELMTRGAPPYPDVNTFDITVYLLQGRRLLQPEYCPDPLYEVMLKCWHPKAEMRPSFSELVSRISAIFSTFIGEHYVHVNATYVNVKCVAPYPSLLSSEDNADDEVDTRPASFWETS
Experiment [5] deals with Hepatocyte growth factor receptor (Homo sapiens, UniProt P08581). The description is as §1. The note with it: at 10 µM.
Hepatocyte growth factor receptor, sequence (P08581 whole entry): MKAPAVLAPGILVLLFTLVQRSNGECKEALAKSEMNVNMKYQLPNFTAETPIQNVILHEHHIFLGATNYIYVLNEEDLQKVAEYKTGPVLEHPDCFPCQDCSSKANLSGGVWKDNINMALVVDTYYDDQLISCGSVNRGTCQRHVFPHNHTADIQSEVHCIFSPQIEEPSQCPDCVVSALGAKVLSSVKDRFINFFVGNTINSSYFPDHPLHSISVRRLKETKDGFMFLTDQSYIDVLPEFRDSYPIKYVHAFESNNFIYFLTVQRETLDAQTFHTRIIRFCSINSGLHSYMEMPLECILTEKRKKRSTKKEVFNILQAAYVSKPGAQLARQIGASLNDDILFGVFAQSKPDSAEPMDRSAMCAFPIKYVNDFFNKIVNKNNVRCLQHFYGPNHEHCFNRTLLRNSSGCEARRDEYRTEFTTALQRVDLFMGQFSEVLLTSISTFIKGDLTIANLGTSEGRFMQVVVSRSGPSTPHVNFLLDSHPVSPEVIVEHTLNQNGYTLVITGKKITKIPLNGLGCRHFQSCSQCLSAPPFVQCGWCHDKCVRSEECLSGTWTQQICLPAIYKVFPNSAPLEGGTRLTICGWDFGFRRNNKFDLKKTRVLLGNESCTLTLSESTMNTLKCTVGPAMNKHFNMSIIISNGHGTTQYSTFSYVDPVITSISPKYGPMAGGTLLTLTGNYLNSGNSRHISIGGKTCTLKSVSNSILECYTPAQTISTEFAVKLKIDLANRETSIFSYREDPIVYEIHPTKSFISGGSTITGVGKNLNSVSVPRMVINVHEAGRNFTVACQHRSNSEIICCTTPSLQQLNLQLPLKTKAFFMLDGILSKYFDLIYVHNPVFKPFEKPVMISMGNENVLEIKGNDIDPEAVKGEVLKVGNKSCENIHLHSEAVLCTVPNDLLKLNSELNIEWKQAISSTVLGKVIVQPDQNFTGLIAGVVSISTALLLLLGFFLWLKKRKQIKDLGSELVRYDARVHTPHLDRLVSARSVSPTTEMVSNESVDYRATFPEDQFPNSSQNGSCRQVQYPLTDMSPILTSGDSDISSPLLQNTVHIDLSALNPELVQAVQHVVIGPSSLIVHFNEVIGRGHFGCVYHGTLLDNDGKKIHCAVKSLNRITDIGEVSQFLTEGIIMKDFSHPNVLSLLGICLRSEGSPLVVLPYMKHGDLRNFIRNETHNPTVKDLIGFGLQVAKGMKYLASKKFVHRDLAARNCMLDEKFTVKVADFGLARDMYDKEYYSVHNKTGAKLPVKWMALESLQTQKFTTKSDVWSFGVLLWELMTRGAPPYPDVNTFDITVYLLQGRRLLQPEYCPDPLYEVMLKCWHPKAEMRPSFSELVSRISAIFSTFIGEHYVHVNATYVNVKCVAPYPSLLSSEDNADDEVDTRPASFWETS
Experiment [6] addresses Ribosomal protein S6 kinase alpha-3 (Homo sapiens, UniProt P51812). In words: Selectivity interaction (ActivX KiNativ screen (kinase selectivity in THP-1 cell lysates)) EUB0000639a RPS6KA3. The conditions noted are these: lysate, at 0.2 µM. It counts as subcellular.
In experiment [7] the target is T2, Mitogen-activated protein kinase 15 (Homo sapiens) (UniProt Q8TD08).
T2 sequence (whole entry): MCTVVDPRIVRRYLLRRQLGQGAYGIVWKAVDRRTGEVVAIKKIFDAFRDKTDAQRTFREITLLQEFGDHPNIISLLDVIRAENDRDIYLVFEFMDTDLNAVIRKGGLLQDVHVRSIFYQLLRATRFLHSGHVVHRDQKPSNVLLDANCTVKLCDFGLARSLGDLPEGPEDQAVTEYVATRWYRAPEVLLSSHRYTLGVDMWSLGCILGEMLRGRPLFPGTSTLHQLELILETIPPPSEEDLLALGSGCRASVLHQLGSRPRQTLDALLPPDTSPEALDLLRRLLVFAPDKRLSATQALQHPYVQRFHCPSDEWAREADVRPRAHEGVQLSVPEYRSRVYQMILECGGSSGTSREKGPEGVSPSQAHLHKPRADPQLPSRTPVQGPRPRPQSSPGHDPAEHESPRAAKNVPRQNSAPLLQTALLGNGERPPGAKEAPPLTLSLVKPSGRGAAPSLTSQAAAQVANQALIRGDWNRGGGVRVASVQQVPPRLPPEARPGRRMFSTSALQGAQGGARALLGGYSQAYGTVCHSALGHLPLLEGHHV
In words: Selectivity interaction (KinomeScan (DiscoverX)) EUB0000229b MAPK15. The note with it: at 10 µM.

The target in experiment [8] is T3, Serine/threonine-protein kinase Nek9 (Homo sapiens) (UniProt Q8TD19).
T3 sequence (whole entry): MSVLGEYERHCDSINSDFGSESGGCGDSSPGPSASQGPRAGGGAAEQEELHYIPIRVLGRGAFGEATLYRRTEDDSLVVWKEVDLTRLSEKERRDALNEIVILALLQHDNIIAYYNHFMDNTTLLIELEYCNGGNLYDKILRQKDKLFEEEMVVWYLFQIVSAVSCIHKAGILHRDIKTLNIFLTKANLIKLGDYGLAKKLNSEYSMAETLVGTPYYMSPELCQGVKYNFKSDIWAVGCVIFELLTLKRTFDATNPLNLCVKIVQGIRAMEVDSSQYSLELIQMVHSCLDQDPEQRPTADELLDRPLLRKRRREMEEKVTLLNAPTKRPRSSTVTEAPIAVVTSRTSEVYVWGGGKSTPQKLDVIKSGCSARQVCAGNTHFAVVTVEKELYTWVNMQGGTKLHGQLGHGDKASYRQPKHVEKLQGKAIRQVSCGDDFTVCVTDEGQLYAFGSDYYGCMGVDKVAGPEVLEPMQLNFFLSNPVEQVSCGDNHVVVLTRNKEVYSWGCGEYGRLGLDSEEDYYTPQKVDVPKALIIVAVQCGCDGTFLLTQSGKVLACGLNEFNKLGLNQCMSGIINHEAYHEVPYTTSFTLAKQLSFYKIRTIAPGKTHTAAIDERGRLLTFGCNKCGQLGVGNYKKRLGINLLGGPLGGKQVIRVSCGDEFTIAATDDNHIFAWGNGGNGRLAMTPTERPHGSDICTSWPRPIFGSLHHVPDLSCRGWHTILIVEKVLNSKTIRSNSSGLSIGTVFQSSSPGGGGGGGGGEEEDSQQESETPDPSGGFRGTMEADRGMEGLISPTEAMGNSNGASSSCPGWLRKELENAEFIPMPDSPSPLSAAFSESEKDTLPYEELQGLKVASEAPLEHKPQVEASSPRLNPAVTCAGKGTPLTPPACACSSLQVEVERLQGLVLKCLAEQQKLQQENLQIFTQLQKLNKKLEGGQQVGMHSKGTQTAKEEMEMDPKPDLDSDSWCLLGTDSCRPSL
The experiment in a line: Selectivity interaction (ActivX KiNativ screen (ex vivo kinase selectivity in human PBMCs)) EUB0001619a NEK9. The note with it: PBMC, at 1 µM. It counts as cell-based.

The target in experiment [9] is Platelet-derived growth factor receptor beta (Homo sapiens, UniProt P09619). The experiment in a line: Selectivity interaction (KinomeScan (DiscoverX)) EUB0000618a PDGFRB. The note with it: at 10 µM.
Platelet-derived growth factor receptor beta, sequence (P09619 whole entry): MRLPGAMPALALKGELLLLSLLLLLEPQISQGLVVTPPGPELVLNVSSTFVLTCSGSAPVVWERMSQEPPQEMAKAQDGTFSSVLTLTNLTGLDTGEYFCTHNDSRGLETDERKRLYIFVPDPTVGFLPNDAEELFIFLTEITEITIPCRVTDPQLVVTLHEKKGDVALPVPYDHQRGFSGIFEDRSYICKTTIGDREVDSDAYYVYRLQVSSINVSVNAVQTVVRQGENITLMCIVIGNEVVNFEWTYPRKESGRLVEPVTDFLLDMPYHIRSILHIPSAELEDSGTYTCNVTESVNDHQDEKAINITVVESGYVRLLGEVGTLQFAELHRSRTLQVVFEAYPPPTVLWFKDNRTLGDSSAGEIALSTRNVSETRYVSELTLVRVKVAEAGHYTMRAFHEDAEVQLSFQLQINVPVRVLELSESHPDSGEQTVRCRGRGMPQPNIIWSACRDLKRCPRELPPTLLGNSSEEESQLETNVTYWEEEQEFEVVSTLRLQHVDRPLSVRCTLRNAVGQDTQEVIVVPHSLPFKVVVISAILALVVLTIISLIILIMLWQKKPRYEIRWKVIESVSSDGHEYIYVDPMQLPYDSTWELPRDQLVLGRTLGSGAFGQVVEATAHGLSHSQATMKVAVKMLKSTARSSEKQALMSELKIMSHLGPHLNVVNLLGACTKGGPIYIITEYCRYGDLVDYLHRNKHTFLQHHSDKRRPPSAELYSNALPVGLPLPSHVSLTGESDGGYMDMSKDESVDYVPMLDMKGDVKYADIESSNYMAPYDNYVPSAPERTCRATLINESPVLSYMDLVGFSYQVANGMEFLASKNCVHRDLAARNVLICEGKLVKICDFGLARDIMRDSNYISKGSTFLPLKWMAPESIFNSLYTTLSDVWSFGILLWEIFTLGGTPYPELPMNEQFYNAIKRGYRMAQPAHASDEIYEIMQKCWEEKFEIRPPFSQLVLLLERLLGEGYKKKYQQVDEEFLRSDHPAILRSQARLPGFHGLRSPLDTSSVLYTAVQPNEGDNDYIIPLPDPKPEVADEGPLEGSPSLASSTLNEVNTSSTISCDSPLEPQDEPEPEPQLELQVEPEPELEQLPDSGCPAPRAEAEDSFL

Ribosomal protein S6 kinase alpha-3, sequence (P51812 whole entry): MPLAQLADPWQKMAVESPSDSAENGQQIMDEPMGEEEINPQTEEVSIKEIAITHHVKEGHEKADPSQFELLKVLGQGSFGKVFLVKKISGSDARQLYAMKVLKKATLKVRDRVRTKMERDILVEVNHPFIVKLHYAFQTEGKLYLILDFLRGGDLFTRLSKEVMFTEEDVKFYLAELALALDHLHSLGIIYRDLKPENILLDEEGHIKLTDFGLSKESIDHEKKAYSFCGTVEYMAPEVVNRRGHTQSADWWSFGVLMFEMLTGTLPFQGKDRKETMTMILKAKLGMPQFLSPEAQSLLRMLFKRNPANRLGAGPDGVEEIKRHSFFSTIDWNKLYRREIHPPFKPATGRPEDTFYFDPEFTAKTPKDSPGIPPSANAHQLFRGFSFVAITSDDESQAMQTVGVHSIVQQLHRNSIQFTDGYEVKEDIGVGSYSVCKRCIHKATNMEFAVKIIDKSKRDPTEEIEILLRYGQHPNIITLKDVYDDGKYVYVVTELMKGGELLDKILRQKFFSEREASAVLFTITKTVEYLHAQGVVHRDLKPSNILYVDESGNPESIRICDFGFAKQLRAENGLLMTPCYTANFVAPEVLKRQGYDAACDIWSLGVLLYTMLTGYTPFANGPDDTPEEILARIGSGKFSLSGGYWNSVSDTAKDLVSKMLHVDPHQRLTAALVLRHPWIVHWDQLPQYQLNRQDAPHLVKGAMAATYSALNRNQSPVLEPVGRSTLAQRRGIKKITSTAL

On to `Cn1cc(-n2cnc3c(NCc4nc5cc(Cl)c(Cl)cc5[nH]4)nc(N4CCOCC4)nc32)cn1`, for which the % of inhibition in experiment [1] turned out to be 13.4%. With `CNC(=O)Nc1ccc(-c2nc(N3CC4CCC(C3)O4)c3cnn(C4CCC5(CC4)OCCO5)c3n2)cc1`, the % of inhibition in [2] turned out to be 2%. The % of control in experiment [3] was determined as 87%; in experiment [4], 24%; in experiment [5], 93%. In the case of `CC[C@@H]1[C@H](F)C(=O)N[C@@H]1COc1nccc2cc(C(N)=O)c(OC)cc12` [ZIMLOVISERTIB], the % of inhibition in [6] stood at 5.4%. `COc1cc(N(C)c2ccnc3ccc(C(F)(F)F)cc23)cc(OC)c1OC` gave a % binding in experiment [7] of 100%. For the compound `N#Cc1cccc(-c2c[nH]c3ncnc(N4CCOCC4)c23)c1`, in [8], the % of inhibition was -31%. On to `O[C@H]1CC[C@H](Nc2ncc3nc(Nc4c(F)cc(F)cc4F)n([C@H]4CCOC4)c3n2)CC1`, for which, in experiment [9], the % of control came to 64%.
